We go through six compounds from patent US8309556B2, “Use of compounds derived from pyrimidinetrione as acetyl cholinesterase inhibitors, compositions containing said derivatives, and the uses thereof” (priority 2005, dated 2012).

The target in test [1] is T1, AChE1 activity of extracts of Culex pipiens larvae resistant to propoxur (G119S-mutated AChE) (Culex pipiens, UniProt Q86GC8, G247S).
T1 construct: from tissue; host or cells: whole larvae of propoxur-resistant Culex pipiens, Triton X100 homogenate supernatant
In words: biochemical. As to the method:
(§1) The inhibitory properties of the compounds of the preceding table I are tested with regard to the AChE activity by either using a normal or G119S-mutated recombinant AChE or using extracts of larvae of mosquitoes which are sensitive (carrying normal AChE) or resistant (carrying G119S-mutated AChE) to organophosphorus compounds and carbamates.
(§2) The AChE activity is measured using the method described by Bourguet et al., Pest Biochem. Physiol., 1996, 55, 122-128, and which refers to the spectroscopic method described by Ellman G. L. et al. (Biochem. Pharmacol., 1961, 7, 88-95) using acetylthiocholine as substrate.
(§3) Larvae of Culex pipiens mosquitoes which are sensitive or resistant to propoxur are milled in 400 μl of 0.25M phosphate buffer comprising 1% Triton X100. The homogenates are centrifuged at 10 000 rpm for 3 minutes.
(§4) The effectiveness of the various compounds with regard to the resistant larvae, relative to the sensitive larvae, is estimated by the sensitive/resistant ratio.

For test [2], the system named is AChE1 activity of extracts of Culex pipiens larvae resistant to propoxur (G119S-mutated AChE). In words: biochemical. The following applies: IC50 on larval extracts, sensitive relative to resistant. As to the method:
as §1, §2, §3, §4

The test system of test [3] is larvae of mosquitoes Culex pipiens sensitive to propoxur. The test can be described thus: Insecticidal activity: larval mortality, propoxur-sensitive larvae. The format is in vivo. The following applies: stage-4 larvae, mortality after 24 hours, log-Probit, read-out: LD50, Sensitive larvae. As to the method: (§5) The insecticidal activity of the compounds according to the invention denoted in table IV below is tested on larvae of mosquitoes Culex pipiens sensitive or resistant to the action of propoxur.
(§6) The larvae resistant or sensitive to propoxur are incubated in 24-well plates, at the rate of 15 stage-4 larvae per well, in 1 ml of tap water comprising different concentrations of compounds ranging from 0.31 to 50 μg/ml.
(§7) Larval mortality is measured after incubating for 24 hours. […] Cahiers ORSTOM, série Entomologie médicale et Parasitologie, 23(2), 117-121; Raymond, M., Prato, G. and Ratsira, D. (1993). PROBIT, CNRS-UMII, Licence L93019. Avenix, 34680 St. Georges d'Orques, France.), the homogeneity of the dose/response being tested. The effectiveness of the different compounds with regard to the resistant larvae, relative to the sensitive larvae, is estimated by the sensitive/resistant ratio.

Test [4] concerns the target T2, normal recombinant Culex pipiens AChE1 (Culex pipiens, UniProt Q86GC8).
T2 construct: made in house; host or cells: Drosophila S2 cells (crude lysate supernatant)
In words: Inhibition of normal recombinant AChE1 (lysates of transfected Drosophile S2 cells, Ellman method). The format is biochemical. Here is the method: as §1, §2
(§8) The inhibitory properties of the compounds according to the invention with regard to the activity of a G119S-mutated or normal recombinant Culex pipiens AChE1 are tested according to protocol described by Weill et al., Nature, 2003, 423, 136-137.
(§9) Each compound according to the invention is tested at different concentrations on lysates of Drosophile S2 cells transfected with an empty expression vector or an expression vector expressing normal or mutated AChE1. After expression, the cells are centrifuged for 15 minutes at 14 000 rpm and are subsequently lysed in a 0.25 M phosphate buffer comprising 1% Triton X100.
(§10) 100 μl of supernatant originating from the centrifuging of the cell lysates at 10 000 rpm for 3 minutes are incubated for 15 minutes with 10 μl of each compound according to the invention at various concentrations.
(§11) The effectiveness of the various compounds with regard to the mutated AChE activity, relative to that of the normal AChE, is estimated by the sensitive/insensitive ratio.
(Ellman's reagent forms a yellow product with free thiols.)

In test [5] the test system is G119S-mutated recombinant Culex pipiens AChE1. In words: biochemical. As to conditions: IC50 normal AChE1 relative to mutated AChE1, recombinant. As to the method:
as §1, §2, §8, §9, §10, §11

Test [6] has as its target T3, G119S-mutated recombinant Culex pipiens AChE1 (Culex pipiens, UniProt Q86GC8, G247S).
T3 construct: made in house; host or cells: Drosophila S2 cells (crude lysate supernatant)
In words: biochemical. As to the method: as §1, §2, §8, §9, §10, §11

For test [7], the system named is larvae of mosquitoes Culex pipiens resistant to propoxur. In words: Insecticidal activity: larval mortality, propoxur-resistant larvae. The class given is in vivo. As to conditions: for LC50: Culex pipiens, stage-4 larvae, mortality after 24 hours, log-Probit, read-out: LD50, Resistant larvae; for Sensitive/resistant ratio: LD50 larval mortality, sensitive relative to resistant. Here is the method:
as §5, §6, §7

Test [8] has as its target T4, AChE1 activity of extracts of Culex pipiens larvae sensitive to propoxur (normal AChE) (Culex pipiens, UniProt Q86GC8).
T4 construct: from tissue; host or cells: whole larvae of propoxur-sensitive Culex pipiens, Triton X100 homogenate supernatant
In words: Inhibition of AChE1 activity in extracts of propoxur-sensitive mosquito larvae. The format is biochemical. Here is the method: as §1, §2, §3, §4

Where [9] appears, read: extracts of propoxur-sensitive larvae, 15 minutes incubation, read-out: IC50, Sensitive larvae.

Read-outs that look alike come from different tables or passages of the source.

For orientation: IC50 means the concentration that inhibits the measured activity by half. In the case of `COc1cccc(N2C(=O)NC(=O)C(=Cc3ccc(C)s3)C2=O)c1` [(3), 1-(3-methoxyphenyl)-5-[(5-methyl-2-thienyl)methylene]-2,4,6(1H,3H,5H)-pyrimidinetrione], the 50% inhibitory concentration (IC50) worked out at 33 µM in test [1], 102 µM in test [4], 62 µM in test [6] and 118 µM in test [8] (setting [9]). Moreover, the Sensitive/resistant ratio in test [2] is recorded as 3.5; in test [7], 3.2. Besides, the LC50 turned out to be 389 µM in test [3] and 122 µM in test [7]. The Sensitive/insensitive ratio in test [5] was determined as 1.65.

As to `Cc1ccc(C=C2C(=O)N(C)C(=O)N(C)C2=O)o1` [(4), 1,3-dimethyl-5-[(5-methyl-2-furyl)methylene]-2,4,6(1H,3H,5H)-pyrimidinetrione], the 50% inhibitory concentration (IC50) in test [1] was 7.5 µM; in test [4], 73 µM; in test [6], 31 µM; in test [8] (setting [9]) it was 74.3 µM. For the same compound, the Sensitive/resistant ratio in test [2] is 9.8; in test [7] it was 2.9. For the same compound, the LC50 stood at 576 µM in test [3] and 200 µM in test [7]. The Sensitive/insensitive ratio in test [5] is listed as 2.40.

Regarding `COc1ccc(N2C(=O)NC(=O)C(=Cc3ccc(C)o3)C2=O)cc1` [(5), 1-(4-methoxyphenyl)-5-[(5-methyl-2-furyl)methylene]-2,4,6(1H,3H,5H)-pyrimidinetrione], the IC50 in test [1] was determined as 81 µM; in test [4], 30 µM; in test [6], 22 µM; in test [8] (setting [9]) it was 592 µM. The values for the Sensitive/resistant ratio in test [2] and in test [7] were 7.3 and 1.5, respectively. The LC50 in test [3] amounted to 300 µM; in test [7], 206 µM. Further, in test [5], the Sensitive/insensitive ratio was 1.36.

For the compound `Cc1ccc(C=C2C(=O)NC(=O)N(c3ccc(Cl)cc3)C2=O)o1` [(6), 1-(4-chlorophenyl)-5-[(5-methyl-2-furyl)methylene]-2,4,6(1H,3H,5H)-pyrimidinetrione], the IC50 stood at 27 µM in test [1], 70 µM in test [4], 43 µM in test [6] and 330 µM in test [8] (setting [9]). The Sensitive/resistant ratio in test [2] was 12.0; in test [7], 4.0. Moreover, the LC50 is 762 µM in test [3] and 192 µM in test [7]. Further, in test [5], the Sensitive/insensitive ratio is recorded as 1.63.

With `C=CCN1C(=O)C(=Cc2ccc(C)o2)C(=O)NC1=S` [(8), 1-allyl-5-[(5-methyl-2-furyl)methylene]-2-thioxodihydro-4,6(1H,5H)-pyrimidinetrione], the IC50 was found to be 51 µM in test [1], 61 µM in test [4], 29 µM in test [6] and 91.6 µM in test [8] (setting [9]). For the same compound, the Sensitive/resistant ratio in test [2] and in test [7] was 1.8 each time. Also, the LC50 in test [3] came to 223 µM; in test [7], 123 µM. Further, in test [5], the Sensitive/insensitive ratio worked out at 2.08.

With `CNC(=O)Oc1ccccc1OC(C)C` [Propoxur, propoxur, reference compound], the IC50 is 31800 µM in test [1], 9 µM in test [4], 6350 µM in test [6] and 4.9 µM in test [8]. Moreover, the Sensitive/resistant ratio in test [2] was 0.00015; in test [7] it was 0.00063. Besides, the LC50 in test [3] was determined as 1.7 µM; in test [7], 2700 µM. Also, the Sensitive/insensitive ratio in test [5] is reported as 0.0014.
